# Patent US5468758A, “Crystalline forms of endo-2,3-dihydro-N-(8-methyl)-8-azabicyclo[3.2.1]oct-3-yl)-2-oxo-1H-benz imidazole-1-carboxamides” (Boehringer Ingelheim Italia S.p.A., priority 1992, dated 1995)
# Counter-ions that a name gives are not always drawn. Like-named read-outs stand apart in the source and are kept apart here.
# Columns and labels:
# Assay type in all cases: physicochemical
# [1] = Accelerated stability tests in tablets and capsules; settings: tablets and capsules in PVC/PVDC blister with aluminium foil
# From the text: (§1) Drug stability in these final compositions may be measured in accelerated stability tests or in long term real time stability tests. In accelerated stability tests, the above pharmaceutical compositions are exposed at high temperatures at different degrees of relative humidity for a period of time. Such tests are considered to be indicative of the stability of the composition at normal conditions. In long term real time stability studies the final compositions are exposed to normal conditions of storage at ambient temperatures at different degrees of relative humidity.
# (*)according to H. Leven Berger Pharm. Act. Helv. 50 (1975) 88-91 it is
# equivalent to 2 years storage at room temperature. Tablets and capsules
# are packaged in PVC/PVDC blister with aluminium foil.
# (*)according to "Guidelines for stability studies for Human Drugs and
# Biologics" (1987) (USA/FDA) it is equivalent to 2 years at room
# temperature. Tablets and capsules are packaged in PVC/PVDC blister with […]
# [2] = Moisture content during tablet manufacturing (mixing and tableting); settings: for Moisture content: % on the weight of compound 1a
# From the text: As a consequence, storage of compound 2a may be effected in normal conditions and no particular precautions are needed to avoid exposure to moisture. The titer of compound 2a, when it is stored in normal conditions, is therefore maintained at difference with compound 1a which, in the same conditions, may show different titles according to the water content. The hygroscopicity may also influence the drug title immediately after the manufacturing of tablets. In fact during the process of manufacturing the drug exposed at normal ambient conditions where it can take up moisture.
# [3] = Moisture sorption/desorption studies (hygrostat, storage at different temperatures and relative humidity); design: water content (Table VI): unit not given here; settings: for moisture absorption: different temperatures and relative humidity, in words
# Description: The determination of the sorption isotherms was carried out in a hygrostat.
# At suitable intervals, the sample was weighed by means of a sample balance. The atmosphere in the hygrostat and therefore around the sample of compound 1a (1b) and 2a (2b) was conditioned and kept by a saturated solutions of a suitable salt:
# Na Cl saturated solution 75.3% RH/25° C. 74.8% RH/37° C.
# KNO3 saturated solution 93.7% RH/25° C. 90.0% RH/37° C.
# At the end of the experiment, after completing the hysteresis, that is the adsorption--desorption cycle of humidity, the compound was assayed for the title and degradation products by TLC and HPLC, the physical state by DSC and water content by TGA.
# [4] = Long-term real time stability tests in tablets and capsules; settings: tablets and capsules in PVC/PVDC blister with aluminium foil
# From the text: as §1
# Tablets and capsules are packaged in PVC/PVDC blister with aluminium foil
# [5] = Milling studies (FRITSCH Pulverisette 14 Rotor Speed Mill)
# Description: The milling process was performed by the FRITSCH Pulverisette 14 Rotor Speed Mill supplied with circular sieve stainless steel with trapezoidal 0.080 mm diameter openings. The samples were passed through the mill twice at 20.000 rpm motor speed. The sample is assayed for title and degradation products by TLC and HPLC, physical state by DSC, water content by TGA, particle size distribution by Mercury Instrusion Porosimetry. The mi 11ed compounds are formulated in capsules and tablets at very low dose level (0.5 mg) by direct mixing and direct compression manufacturing method, respectively.
smiles,measurement,setting,value
"CN1C2CCC1CC(NC(=O)n1c(=O)[nH]c3ccccc31)C2 (stereo not drawn) [Compound 1a, endo-2,3-dihydro-N-(8-methyl-8-azabicyclo[3.2.1]oct-3-yl)-2-oxo-1H-benzimidazole-1-carboxamide, reference compound]",% degradation,"[1]; 1 month/55° C., 43200 min",2.0%
same,degraded at 2160 h,"[1]; tablets and capsules, 3 months/40° C.-75% RH, read-out: % degradation",0.8%
same,degraded at 2160 h,"[1]; tablets and capsules, 3 months/55° C., read-out: % degradation",3.2%
same,degraded at 4320 h,"[1]; tablets and capsules, 6 months/40° C.-75% RH, read-out: % degradation",1.7%
same,Moisture content,"[2]; Final (b), tableting",1.02%
same,Moisture content,"[2]; Intermediate (a), mixing",0.66%
same,Moisture content,[2]; Start,0.62%
same,water content during manufacturing,"[2]; mixing (a) and tableting (b) phases, in words",increases its water content
same,water content (Table III),"[3]; 37° C., 75% RH, 2 h",0.34%
same,water content (Table III),"[3]; 37° C., 75% RH, 4 h",0.39%
same,water content (Table III),"[3]; 37° C., 75% RH, 6 h",0.59%
same,water content (Table III),"[3]; 37° C., 75% RH, 1 d",1.95%
same,water content (Table III),"[3]; 37° C., 75% RH, 5 d",5.09%
same,water content (Table III),"[3]; 37° C., 75% RH, 9 d",5.13%
same,water content (Table III),"[3]; 37° C., 75% RH, 15 d",5.13%
same,water content (Table III),"[3]; 37° C., 94% RH, 2 h",1.93%
same,water content (Table III),"[3]; 37° C., 94% RH, 4 h",3.41%
same,water content (Table III),"[3]; 37° C., 94% RH, 6 h",4.68%
same,water content (Table III),"[3]; 37° C., 94% RH, 1 d",5.04%
same,water content (Table III),"[3]; 37° C., 94% RH, 5 d",5.06%
same,water content (Table III),"[3]; 37° C., 94% RH, 9 d",5.06%
same,water content (Table III),"[3]; 37° C., 94% RH, 15 d",5.04%
same,water content (Table III),"[3]; Room Temperature, 75% RH, 2 h",0.68%
same,water content (Table III),"[3]; Room Temperature, 75% RH, 4 h",0.74%
same,water content (Table III),"[3]; Room Temperature, 75% RH, 6 h",0.78%
same,water content (Table III),"[3]; Room Temperature, 75% RH, 1 d",1.25%
same,water content (Table III),"[3]; Room Temperature, 75% RH, 4 d",2.54%
same,water content (Table III),"[3]; Room Temperature, 75% RH, 8 d",3.5%
same,water content (Table III),"[3]; Room Temperature, 75% RH, 20 d",4.59%
same,water content (Table III),"[3]; Room Temperature, 75% RH, 40 d",4.95%
same,water content (Table III),"[3]; Room Temperature, 94% RH, 2 h",1.28%
same,water content (Table III),"[3]; Room Temperature, 94% RH, 4 h",1.92%
same,water content (Table III),"[3]; Room Temperature, 94% RH, 6 h",2.41%
same,water content (Table III),"[3]; Room Temperature, 94% RH, 1 d",5.33%
same,water content (Table III),"[3]; Room Temperature, 94% RH, 4 d",5.39%
same,water content (Table III),"[3]; Room Temperature, 94% RH, 8 d",5.39%
same,water content (Table III),"[3]; Room Temperature, 94% RH, 20 d",5.4%
same,water content (Table III),"[3]; Room Temperature, 94% RH, 40 d",5.42%
same,moisture absorption,[3],marked tendency to moisture absorption
same,% degradation,"[4]; 3 months/40° C., 129600 min",0.6%
same,% degradation,"[4]; 6 months/30° C.-70% RH, 259200 min",0.5%
same,% degradation,"[4]; 6 months/40° C., 259200 min",1.1%
same,particle size reduction (milling efficiency),"[5]; Mercury Porosimetry Analysis, in words",same rank order
same,percentage of degradation products after milling,"[5]; rotor speed of 20,000 rpm",0.65%
"CCn1c(=O)n(C(=O)N[C@H]2C[C@H]3CC[C@@H](C2)N3C)c2ccccc21 [Compound 1b, endo-3-ethyl-2,3-dihydro-N-(8-methyl-8-azabicyclo-[3.2.1]oct-3-yl)-2-oxo-1H-benzimidazole-1-carboxamide hydrochloride, reference compound]",water content (Table VI),"[3]; 37° C., 49.2% RH, 2 h, hydrochloride",2.18
same,water content (Table VI),"[3]; 37° C., 49.2% RH, 4 h, hydrochloride",2.58
same,water content (Table VI),"[3]; 37° C., 49.2% RH, 6 h, hydrochloride",3.01
same,water content (Table VI),"[3]; 37° C., 49.2% RH, 1 d, hydrochloride",4.07
same,water content (Table VI),"[3]; 37° C., 49.2% RH, 4 d, hydrochloride",4.81
same,water content (Table VI),"[3]; 37° C., 49.2% RH, 10 d, hydrochloride",4.82
same,water content (Table VI),"[3]; 37° C., 49.2% RH, 30 d, hydrochloride",4.81
same,water content (Table VI),"[3]; 37° C., 49.2% RH, time 0, hydrochloride",1.13
same,water content (Table VI),"[3]; 37° C., 74.8% RH, 2 h, hydrochloride",4.99
same,water content (Table VI),"[3]; 37° C., 74.8% RH, 4 h, hydrochloride",4.93
same,water content (Table VI),"[3]; 37° C., 74.8% RH, 6 h, hydrochloride",4.97
same,water content (Table VI),"[3]; 37° C., 74.8% RH, 1 d, hydrochloride",4.90
same,water content (Table VI),"[3]; 37° C., 74.8% RH, 4 d, hydrochloride",4.92
same,water content (Table VI),"[3]; 37° C., 74.8% RH, 10 d, hydrochloride",4.85
same,water content (Table VI),"[3]; 37° C., 74.8% RH, 30 d, hydrochloride",4.81
same,water content (Table VI),"[3]; 37° C., 74.8% RH, time 0, hydrochloride",1.13
same,moisture absorption,[3]; hydrochloride,marked tendency to moisture absorption
same,humidity content,"[5]; after milling, hydrochloride",2.32%
same,humidity content,[5]; before milling,0.87%
